From patent publication US20250282820A1, “PEPTIDE COMPLEX HAVING TRKB BINDING ACTIVITY” (PEPTIDREAM INC, priority 2022, published 2025)
*1 amine or outer side, *2 acyl side, *3 side chain or, on linkers, in order; H or OH if unused. Where a SMILES comes first, the peptide text is derived from it. Bridges are numbered along the chain shown (N, C = ends). Roman numbers before positions name the chains, in order. [ ]: non-standard residue; d: D form. CO(CH2CH2O)13CH2CH2CO = O=C(CCOCCOCCOCCOCCOCCOCCOCCOCCOCCOCCOCCOCCOCCC(=O)[*:2])[*:1]; 3Pal = N[C@@H](Cc1cccnc1)C(=O)O

Target: T1, TrkB (CellSensor TrkB-NFAT-bla CHO-K1 Cell) (Homo sapiens, UniProt Q16620)
T1 construct: host or cells: CHO-K1 (CellSensor TrkB-NFAT-bla CHO-K1)
T1 sequence (Q16620 32-822): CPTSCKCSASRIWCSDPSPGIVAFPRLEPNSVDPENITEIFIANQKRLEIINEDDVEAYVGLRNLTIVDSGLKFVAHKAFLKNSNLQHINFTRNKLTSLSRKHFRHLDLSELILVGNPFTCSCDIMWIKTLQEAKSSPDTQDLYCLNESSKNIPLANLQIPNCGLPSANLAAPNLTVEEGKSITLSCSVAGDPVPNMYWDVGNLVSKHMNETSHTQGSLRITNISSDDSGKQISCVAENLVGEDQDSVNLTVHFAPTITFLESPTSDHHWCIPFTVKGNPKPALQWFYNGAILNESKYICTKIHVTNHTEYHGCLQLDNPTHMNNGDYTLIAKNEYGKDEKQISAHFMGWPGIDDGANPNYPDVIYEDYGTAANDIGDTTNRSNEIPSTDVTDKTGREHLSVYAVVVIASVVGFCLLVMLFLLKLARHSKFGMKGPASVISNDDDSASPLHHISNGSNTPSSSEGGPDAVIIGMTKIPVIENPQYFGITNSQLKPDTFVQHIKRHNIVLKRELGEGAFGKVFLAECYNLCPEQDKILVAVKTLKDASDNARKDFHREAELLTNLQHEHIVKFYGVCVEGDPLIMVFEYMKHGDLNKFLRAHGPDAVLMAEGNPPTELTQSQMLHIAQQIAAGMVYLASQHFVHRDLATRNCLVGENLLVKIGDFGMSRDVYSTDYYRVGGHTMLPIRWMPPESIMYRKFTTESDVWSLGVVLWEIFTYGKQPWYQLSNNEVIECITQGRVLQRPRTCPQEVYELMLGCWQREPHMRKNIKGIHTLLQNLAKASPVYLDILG
Experiment: pERK1/2 AlphaLISA assay (phosphorylation of ERK) for TrkB agonist activity
Type: cell-based
Conditions: class = peptide concentration giving 50% or more activity; BDNF maximum signal = 100%, no stimulation = 0%; 15 minutes of stimulation
How it was run: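 TrkB-NFAT-bla CHO-K1 cells were starved 4 h in 0.1% BSA medium and then stimulated 15 min with peptide or BDNF; p-ERK1/2 (Thr202/Tyr204) in the lysate was read by AlphaLISA SureFire. Activity % was scaled to the BDNF maximum (100%) and no stimulation (0%); A = ≥50% at 1 nM, B = ≥50% at 10 nM; curves were 8 points, 4-fold dilutions from 100 nM.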

Row | SMILES | pERK (aLISA) Assay Results
1 | CC(C)[C@@H]1NC(=O)[C@H](Cc2cccnc2)NC(=O)[C@H](CCC(=O)O)NC(=O)[C@H](CO)NC(=O)[C@H](Cc2ccc(O)cc2)NC(=O)[C@H]([C@@H](C)O)NC(=O)[C@@H]2CCCN2C(=O)[C@H](Cc2c[nH]c3ccccc23)NC(=O)[C@H](Cc2cccnc2)NC(=O)[C@H](Cc2ccc(O)cc2)NC(=O)[C@@H]2CCCN2C(=O)[C@H](CO)NC(=O)[C@H](Cc2ccccc2)NC(=O)CSC[C@@H](C(=O)NCC(=O)N[C@@H](CCCCNC(=O)CCOCCOCCOCCOCCOCCOCCOCCOCCOCCOCCOCCOCCOCCC(=O)NCCCC[C@H](NC(=O)CNC(=O)[C@@H]2CSCC(=O)N[C@@H](Cc3ccccc3)C(=O)N[C@@H](CO)C(=O)N3CCC[C@H]3C(=O)N[C@@H](Cc3ccc(O)cc3)C(=O)N[C@@H](Cc3cccnc3)C(=O)N[C@@H](Cc3c[nH]c4ccccc34)C(=O)N3CCC[C@H]3C(=O)N[C@@H]([C@@H](C)O)C(=O)N[C@@H](Cc3ccc(O)cc3)C(=O)N[C@@H](CO)C(=O)N[C@@H](CCC(=O)O)C(=O)N[C@@H](Cc3cccnc3)C(=O)N[C@@H](C(C)C)C(=O)N[C@@H](CCC(=O)O)C(=O)N2)C(N)=O)C(N)=O)NC(=O)[C@H](CCC(=O)O)NC1=O [compound 48] (I: {CH2CO}-FSPY[3Pal]WPTYSE[3Pal]VECGK-NH2 / II: {CH2CO}-FSPY[3Pal]WPTYSE[3Pal]VECGK-NH2; linker I:17-II:17 via CO(CH2CH2O)13CH2CH2CO; thioether I:N-I:15, II:N-II:15) | A (The peptide with 50% or more activity when 1 nM of the peptide was added was evaluated as A)
2 | CC(C)[C@@H]1NC(=O)[C@H](Cc2cccnc2)NC(=O)[C@H](CCC(=O)O)NC(=O)[C@H](CO)NC(=O)[C@H](Cc2ccc(O)cc2)NC(=O)[C@H]([C@@H](C)O)NC(=O)[C@@H]2CCCN2C(=O)[C@H](Cc2c[nH]c3ccccc23)NC(=O)[C@H](Cc2cccnc2)NC(=O)[C@H](Cc2ccc(O)cc2)NC(=O)[C@@H]2CCCN2C(=O)[C@H](CCC(=O)O)NC(=O)[C@H](Cc2ccccc2)NC(=O)CSC[C@@H](C(=O)NCC(=O)N[C@@H](CCCCNC(=O)CCOCCOCCOCCOCCOCCOCCOCCOCCOCCOCCOCCOCCOCCC(=O)NCCCC[C@H](NC(=O)CNC(=O)[C@@H]2CSCC(=O)N[C@@H](Cc3ccccc3)C(=O)N[C@@H](CCC(=O)O)C(=O)N3CCC[C@H]3C(=O)N[C@@H](Cc3ccc(O)cc3)C(=O)N[C@@H](Cc3cccnc3)C(=O)N[C@@H](Cc3c[nH]c4ccccc34)C(=O)N3CCC[C@H]3C(=O)N[C@@H]([C@@H](C)O)C(=O)N[C@@H](Cc3ccc(O)cc3)C(=O)N[C@@H](CO)C(=O)N[C@@H](CCC(=O)O)C(=O)N[C@@H](Cc3cccnc3)C(=O)N[C@@H](C(C)C)C(=O)N[C@@H](CCC(=O)O)C(=O)N2)C(N)=O)C(N)=O)NC(=O)[C@H](CCC(=O)O)NC1=O [compound 56] (I: {CH2CO}-FEPY[3Pal]WPTYSE[3Pal]VECGK-NH2 / II: {CH2CO}-FEPY[3Pal]WPTYSE[3Pal]VECGK-NH2; linker I:17-II:17 via CO(CH2CH2O)13CH2CH2CO; thioether I:N-I:15, II:N-II:15) | A (The peptide with 50% or more activity when 1 nM of the peptide was added was evaluated as A)
